Results reported in BindingDB's records for doi:10.1038/sj.bjp.0705964 (Johnson & Johnson Pharmaceutical Research and Development, 2004).

Key:
Hrh3 protein = Hrh3 protein (Rattus norvegicus, UniProt Q5PPG3)
Histamine H4 receptor = Histamine H4 receptor (Homo sapiens, UniProt Q9H3N8)
Histamine H2 receptor = Histamine H2 receptor (Homo sapiens, UniProt P25021)
Histamine H2 receptor, sequence (P25021 whole entry): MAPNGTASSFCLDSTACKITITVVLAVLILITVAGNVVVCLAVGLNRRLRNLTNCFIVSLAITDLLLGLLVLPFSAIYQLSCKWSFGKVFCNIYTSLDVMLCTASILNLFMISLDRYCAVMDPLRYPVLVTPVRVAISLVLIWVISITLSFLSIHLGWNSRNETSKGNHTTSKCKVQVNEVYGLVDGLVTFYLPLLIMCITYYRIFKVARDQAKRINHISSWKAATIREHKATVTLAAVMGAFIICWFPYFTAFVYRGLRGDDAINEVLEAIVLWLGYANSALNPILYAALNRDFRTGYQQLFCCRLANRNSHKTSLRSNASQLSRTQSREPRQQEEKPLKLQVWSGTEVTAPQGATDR

Histamine H4 receptor, sequence (Q9H3N8 whole entry): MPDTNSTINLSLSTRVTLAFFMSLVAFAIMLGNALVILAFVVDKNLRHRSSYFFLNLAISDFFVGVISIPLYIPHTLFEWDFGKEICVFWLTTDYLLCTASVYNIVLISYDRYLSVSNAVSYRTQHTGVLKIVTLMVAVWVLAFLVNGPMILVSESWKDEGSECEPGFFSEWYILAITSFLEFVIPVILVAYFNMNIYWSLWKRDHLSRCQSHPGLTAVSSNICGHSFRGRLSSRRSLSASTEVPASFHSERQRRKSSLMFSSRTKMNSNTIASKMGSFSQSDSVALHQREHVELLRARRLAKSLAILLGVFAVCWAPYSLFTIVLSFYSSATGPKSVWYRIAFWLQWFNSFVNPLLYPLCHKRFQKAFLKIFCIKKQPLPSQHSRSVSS
Hrh3 protein, sequence (Q5PPG3 whole entry): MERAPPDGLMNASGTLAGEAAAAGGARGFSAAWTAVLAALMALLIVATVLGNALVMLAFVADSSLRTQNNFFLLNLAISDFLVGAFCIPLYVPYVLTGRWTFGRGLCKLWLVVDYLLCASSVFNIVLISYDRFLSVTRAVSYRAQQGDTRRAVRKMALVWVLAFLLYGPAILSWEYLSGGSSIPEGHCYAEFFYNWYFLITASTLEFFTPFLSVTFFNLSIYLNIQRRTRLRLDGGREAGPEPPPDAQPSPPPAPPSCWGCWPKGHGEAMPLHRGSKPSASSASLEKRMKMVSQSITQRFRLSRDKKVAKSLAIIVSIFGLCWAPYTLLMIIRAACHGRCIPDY

Structure (SMILES): c1cc(OCCCN2CCCCC2)ccc1CN1CCCCC1 [1-(3-(4-(piperidin-1-ylmethyl)phenoxy)propyl)piperidine]
- Ki (Hrh3 protein): 0.00126 µM
- Ki (Histamine H4 receptor): > 10 µM
- Ki (Histamine H2 receptor): > 10 µM
